Our source for the IC50 values is patent publication US10703735B2, “4-phenyl-coumarin derivatives, processes for their preparation and uses thereof for the treatment of cancer” (Lead Discovery Center GmbH, priority 2018, dated 2020).

In the test the target is mitochondrial RNA-polymerase (POLRMT) (Mus musculus, UniProt Q8BKF1). Kind of test: Homogeneous TR-FRET assay for mitochondrial transcription activity. The test is classed as biochemical. The following applies: homogeneous TR-FRET assay according to Example 4; read-out: mitochondrial transcription activity (IC-50). The text has this: The TR-FRET assay was basically conducted as described in WO 2016/193231A1, especially as described in example 1 (hereby incorporated by reference). With respect to the background of the mitochondrial transcription it is referred to Falkenberg et al. (2002) and Posse et al. (Posse et al. 2015). The method monitors the activity of mitochondrial RNA-polymerase via detection of the formation of its product, a 407 bp long RNA sequence. Detection of the product is facilitated by hybridization of two DNA-oligonucleotide probes to specific and adjacent sequences within the RNA product sequence. Upon annealing of the probes, two fluorophores that are coupled directly to an acceptor nucleotide probe (ATT0647, 5′) or introduced via a coupled streptavidin interacting with a biotinylated donor nucleotide probe on the other side (Europium cryptate, 3) are brought into sufficient proximity to serve as a fluorescence-donor-acceptor pair as generally described in Walters and Namchuk (2003). Thus, a FRET signal at 665 nm is generated upon excitation at 340 nm.
Chain of mitochondrial RNA-polymerase (POLRMT) (Q8BKF1 42-1207): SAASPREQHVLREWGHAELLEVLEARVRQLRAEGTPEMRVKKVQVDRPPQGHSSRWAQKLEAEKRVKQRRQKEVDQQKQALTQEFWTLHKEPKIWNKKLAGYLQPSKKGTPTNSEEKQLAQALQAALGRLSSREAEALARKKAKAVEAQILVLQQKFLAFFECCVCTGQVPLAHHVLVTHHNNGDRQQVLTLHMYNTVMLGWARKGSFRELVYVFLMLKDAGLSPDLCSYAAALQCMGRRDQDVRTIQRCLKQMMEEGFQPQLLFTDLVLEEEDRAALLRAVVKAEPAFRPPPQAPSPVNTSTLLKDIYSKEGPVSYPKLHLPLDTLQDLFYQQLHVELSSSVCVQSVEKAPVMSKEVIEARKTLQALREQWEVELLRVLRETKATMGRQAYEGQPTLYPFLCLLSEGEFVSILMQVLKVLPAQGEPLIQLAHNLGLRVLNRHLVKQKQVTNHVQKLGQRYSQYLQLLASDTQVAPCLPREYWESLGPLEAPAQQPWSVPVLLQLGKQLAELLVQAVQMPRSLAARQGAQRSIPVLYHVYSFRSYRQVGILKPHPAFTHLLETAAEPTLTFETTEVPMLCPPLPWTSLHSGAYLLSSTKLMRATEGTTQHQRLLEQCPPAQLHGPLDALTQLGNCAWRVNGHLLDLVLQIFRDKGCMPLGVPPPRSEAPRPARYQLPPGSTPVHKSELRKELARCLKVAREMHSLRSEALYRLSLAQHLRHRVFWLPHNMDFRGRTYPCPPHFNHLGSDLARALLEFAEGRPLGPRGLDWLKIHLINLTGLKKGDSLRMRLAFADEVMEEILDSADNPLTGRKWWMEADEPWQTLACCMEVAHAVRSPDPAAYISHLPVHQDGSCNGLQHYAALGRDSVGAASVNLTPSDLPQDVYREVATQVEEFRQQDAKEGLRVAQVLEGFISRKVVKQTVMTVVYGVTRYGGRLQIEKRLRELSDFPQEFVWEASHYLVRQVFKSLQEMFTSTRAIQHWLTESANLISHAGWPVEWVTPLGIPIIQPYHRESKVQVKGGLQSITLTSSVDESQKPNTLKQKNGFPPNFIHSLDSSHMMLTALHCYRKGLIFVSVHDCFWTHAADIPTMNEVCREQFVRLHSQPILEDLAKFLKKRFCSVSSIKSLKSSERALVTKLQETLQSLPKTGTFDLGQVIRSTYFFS
Briefly, the protocol described here was applied for screening and activity determination in a low-volume 384-well microtiter plate with non-binding surface. For high-throughput application in the 1536-well microtiter plate format, volumes of the reagent mixes were adjusted, maintaining the volumetric ratio. Proteins POLRMT (NM_172551.3), TFAM (NM_009360.4) and TFB2M (NM_008249.4) were diluted from their stocks to working concentrations of 150 nM, 1.8 μM and 330 nM respectively, in a dilution buffer containing 100 mM Tris-HCl pH 8.0, 200 mM NaCl, 10% (v/v) glycerole, 2 mM glutathione (GSH), 0.5 mM EDTA and 0.1 mg/mL BSA. Protein dilutions and template DNA, comprising a pUC18 plasmid encoding the mitochondrial light strand promoter, restriction linearized proximal to the promoter 3′-end (pUC-LSP), were mixed at the twofold final assay-concentration in a reaction buffer, containing 10 mM Tris-HCl pH 7.5, 10 mM MgCl2, 40 mM NaCl, 2 mM GSH, 0.01% (w/v) Tween-20 and 0.1 mg/mL BSA.
5 μL of this mix were dispensed, depending on the chosen microtiter plate format, using multi-channel pipettes or a Multidrop® dispenser (Thermo Fisher Scientific, Waltham Mass.) into the wells of a microtiter plate and incubated at room temperature (RT) for 10 min. Chemical compounds under scrutiny in the assay were applied using contact-free acoustic droplet-dispensing (Echo520® Labcyte Inc., Sunnyvale Calif.) from 10 mM compound stocks in 100% DMSO, to a final concentration of 10 μM or in serial dilution series of the required concentration range. Equal amounts of DMSO without any compound were added to positive control samples, followed by an incubation step at RT for 10 min.
The enzymatic reaction was started by the addition of 5 μL of a mix of dNTPs in reaction buffer to a final concentration of 500 μM each. No nucleotide mix was added to negative control samples. The content of the wells was mixed using a VarioTeleshaker™ (Thermo Fisher Scientific, Waltham Mass.) at 1500 rpm for 45 sec after which the microtiter plate was centrifuged at 500×g for 1 min. The samples were incubated for 2 h at RT with humidity control to avoid evaporation. The detection reagents were prepared in a buffer that was composed, such that the enzymatic reaction was terminated due to chelating of Mg-ions and increased ionic strength, containing 50 mM Tris-HCl pH 7.5, 700 mM NaCl, 20 mM EDTA, and 0.01% (w/v) Tween-20. Importantly Eu-cryptate-coupled streptavidin had to be preincubated with a 100-fold molar excess of a random sequence oligonucleotide for 10 min at RT in the dark to block unspecific binding of single stranded RNA to the protein. Subsequently, the blocked streptavidin(-Eu) was mixed with the DNA-probes on ice and kept away from light until use. […]
(In general: TR-FRET usually uses a lanthanide donor and a delayed reading to cut background.)
Turning to `O=C(O)C1CCCN(C(=O)COc2cc3oc(=O)cc(-c4ccccc4)c3cc2Cl)C1` (stereo not shown) [Compound 85, 1-[2-(6-chloro-2-oxo-4-phenyl-chromen-7-yl)oxyacetyl]piperidine-3-carboxylic acid], the IC50 lay in the range of 1000 to 10000 nM.

Turning to `CN(C(=O)COc1ccc2c(-c3ccccc3)cc(=O)oc2c1)c1ccc(CCO)cc1` [Compound 40, N-[4-(2-hydroxyethyl)phenyl]-N-methyl-2-(2-oxo-4-phenyl-chromen-7-yl)oxy-acetamide], the IC50 lay within 100 to 1000 nM.

For the compound `CC(Oc1cc2oc(=O)cc(-c3ccccc3)c2cc1Cl)C(=O)NCC(O)c1ccccc1` (stereo not shown) [Compound 27, 2-(6-chloro-2-oxo-4-phenyl-chromen-7-yl)oxy-N-(2-hydroxy-2-phenyl-ethyl)propanamide], the IC50 was 1000 to 10000 nM.

For `O=C(COc1cc2oc(=O)cc(-c3ccccc3)c2cc1Cl)NCc1ccccn1` [Compound 99, 2-(6-chloro-2-oxo-4-phenyl-chromen-7-yl)oxy-N-(2-pyridylmethyl)acetamide], the IC50 was in the range of 1000 to 10000 nM.

`CCOC(=O)C(C)Oc1ccc2c(-c3ccc(Cl)cc3)cc(=O)oc2c1` (stereo not shown) [Compound 3, ethyl 2-[4-(4-chlorophenyl)-2-oxo-chromen-7-yl]oxypropanoate]: the IC50 was in the range of 100 to 1000 nM.

Regarding `CCN(CC)C(=O)COc1ccc2c(-c3ccccc3)cc(=O)oc2c1` [Compound 48, N,N-diethyl-2-(2-oxo-4-phenyl-chromen-7-yl)oxy-acetamide], the IC50 fell in the range of 1000 to 10000 nM.

Consider `CC(Oc1ccc2c(-c3ccccc3)cc(=O)oc2c1)C(=O)N1CCC[C@H](C(=O)N(C)C)C1` (mixture of isomers) [Compound 68, rac-(3S)-N,N-dimethyl-1-[2-(2-oxo-4-phenyl-chromen-7-yl)oxpropanoyl]piperidine-3-carboxamide], for which the IC50 lay in the range of 1000 to 10000 nM.

In the case of `CCOC(=O)C(C)Oc1ccc2c(-c3ccc(F)cc3)cc(=O)oc2c1` (stereo not shown) [Compound 8, ethyl 2-[4-(4-fluorophenyl)-2-oxo-chromen-7-yl]oxypropanoate], the IC50 was 100 to 1000 nM.

For `NC(=O)COc1ccc2c(-c3ccccc3)cc(=O)oc2c1` [Compound 75, 2-(2-oxo-4-phenyl-chromen-7-yl)oxyacetamide], the IC50 lay in the range of 1000 to 10000 nM.

For `C[C@@H](Oc1ccc2c(-c3ccccc3)cc(=O)oc2c1)C(=O)N1CCC[C@H](C(=O)O)C1` [Compound 21, (3S)-1-[(2R)-2-(2-oxo-4-phenyl-chromen-7-yl)oxypropanoyl]piperidine-3-carboxylic acid], the IC50 fell in the range of 100 to 1000 nM.

With `CC(Oc1ccc2c(-c3ccccc3)cc(=O)oc2c1)C(=O)N1CCCC(c2nn[nH]n2)C1` (stereo not shown) [Compound 20, 7-[1-methyl-2-oxo-2-[3-(2H-tetrazol-5-yl)-1-piperidyl]ethoxy]-4-phenyl-chromen-2-one], the IC50 was under 20 nM.

`CC(Oc1ccc2c(-c3ccccc3)cc(=O)oc2c1)C(=O)N1CCCCC1` (stereo not shown) [Compound 39, 7-[1-methyl-2-oxo-2-(1-piperidyl)ethoxy]-4-phenyl-chromen-2-one]: the IC50 is 100 to 1000 nM.

Turning to `CC(Oc1ccc2c(-c3ccccc3)cc(=O)oc2c1)C(=O)N1CCCC(C(=O)O)C1` (stereo not shown) [Compound 14, 1-[2-(2-oxo-4-phenyl-chromen-7-yl)oxypropanoyl]piperidine-3-carboxylic acid], the IC50 was in the range of 100 to 1000 nM.

Take `CC(Oc1cc2oc(=O)cc(-c3ccccc3)c2cc1Cl)C(=O)NCc1ccco1` (stereo not shown) [Compound 42, 2-(6-chloro-2-oxo-4-phenyl-chromen-7-yl)oxy-N-(2-furylmethyl)propanamide]: the IC50 was 100 to 1000 nM.

As to `CCOC(=O)C(C)Oc1cc2oc(=O)cc(-c3ccccc3)c2cc1Cl` (stereo not shown) [Compound 50, ethyl 2-(6-chloro-2-oxo-4-phenyl-chromen-7-yl)oxypropanoate], the IC50 fell in the range of 100 to 1000 nM.

Take `O=C(O)C1CCCN(C(=O)COc2ccc3c(-c4ccccc4)cc(=O)oc3c2)C1` (stereo not shown) [Compound 54, 1-[2-(2-oxo-4-phenyl-chromen-7-yl)oxyacetyl]piperidine-3-carboxylic acid]: the IC50 lay in the range of 100 to 1000 nM.

For `CC(Oc1ccc2c(-c3ccccc3)cc(=O)oc2c1)C(=O)NCC(O)c1ccccc1` (stereo not shown) [Compound 29, N-(2-hydroxy-2-phenyl-ethyl)-2-(2-oxo-4-phenyl-chromen-7-yl)oxy-propanamide], the IC50 lay within 1000 to 10000 nM.

In the case of `CC(Oc1ccc2c(-c3ccccc3)cc(=O)oc2c1)C(=O)Nc1ccncc1` (stereo not shown) [Compound 61, 2-(2-oxo-4-phenyl-chromen-7-yl)oxy-N-(4-pyridyl)propanamide], the IC50 lay in the range of 1000 to 10000 nM.

In the case of `O=C(COc1cc2oc(=O)cc(-c3ccccc3)c2cc1Cl)N1CCCc2ccccc21` [Compound 78, 6-chloro-7-[2-(3,4-dihydro-2H-quinolin-1-yl)-2-oxo-ethoxy]-4-phenyl-chromen-2-one], the IC50 lay within 1000 to 10000 nM.

As to `CCOC(=O)C(C)Oc1ccc2c(-c3ccc(Br)cc3)cc(=O)oc2c1` (stereo not shown) [Compound 41, ethyl 2-[4-(4-bromophenyl)-2-oxo-chromen-7-yl]oxypropanoate], the IC50 fell in the range of 100 to 1000 nM.

As for `CC(Oc1ccc2c(-c3ccccc3)cc(=O)oc2c1)C(=O)NC(C(=O)O)c1ccccc1` (stereo not shown) [Compound 96, 2-[2-(2-oxo-4-phenyl-chromen-7-yl)oxypropanoylamino]-2-phenyl-acetic acid], the IC50 was in the range of 1000 to 10000 nM.

Regarding `CC(Oc1ccc2c(-c3ccccc3)cc(=O)oc2c1)C(=O)Nc1ccc(CCO)cc1` (stereo not shown) [Compound 16, N-[4-(2-hydroxyethyl)phenyl]-2-(2-oxo-4-phenyl-chromen-7-yl)oxy-propanamide], the IC50 lay in the range of 100 to 1000 nM.

Regarding `O=C(COc1ccc2c(-c3ccccc3)cc(=O)oc2c1)Nc1ccccn1` [Compound 22, 2-(2-oxo-4-phenyl-chromen-7-yl)oxy-N-(2-pyridyl)acetamide], the IC50 lay in the range of 100 to 1000 nM.

As for `CC(Oc1ccc2c(-c3ccccc3)cc(=O)oc2c1)C(=O)Nc1ccc(CCCO)cc1` (stereo not shown) [Compound 5, N-[4-(3-hydroxypropyl)phenyl]-2-(2-oxo-4-phenyl-chromen-7-yl)oxy-propanamide], the IC50 lay within 100 to 1000 nM.

As to `CC(Oc1ccc2c(-c3ccccc3)cc(=O)oc2c1)C(=O)N1CCC[C@@H](C(=O)O)C1` (stereo partly drawn) [Compound 37, (3R)-1-[2-(2-oxo-4-phenyl-chromen-7-yl)oxypropanoyl]piperidine-3-carboxylic acid], the IC50 fell in the range of 1000 to 10000 nM.

On to `Cc1c(OCC(=O)OC(C)(C)C)ccc2c(-c3ccccc3)cc(=O)oc12` [Compound 94, tert-butyl 2-(8-methyl-2-oxo-4-phenyl-chromen-7-yl)oxyacetate], for which the IC50 was in the range of 1000 to 10000 nM.

Consider `CCCOC(=O)COc1ccc2c(-c3ccccc3)cc(=O)oc2c1` [Compound 74, propyl 2-(2-oxo-4-phenyl-chromen-7-yl)oxyacetate], for which the IC50 lay within 1000 to 10000 nM.

For the compound `CC(Oc1cc2oc(=O)cc(-c3ccccc3)c2cc1Cl)C(=O)NCCN1CCOCC1` (stereo not shown) [Compound 79, 2-(6-chloro-2-oxo-4-phenyl-chromen-7-yl)oxy-N-(2-morpholinoethyl)propanamide], the IC50 lay in the range of 1000 to 10000 nM.

Regarding `COc1ccc(NC(=O)C(C)Oc2ccc3c(-c4ccccc4)cc(=O)oc3c2)cc1` (stereo not shown) [Compound 72, N-(4-methoxyphenyl)-2-(2-oxo-4-phenyl-chromen-7-yl)oxy-propanamide], the IC50 was 1000 to 10000 nM.

With `COC(=O)C(C)Oc1ccc2c(-c3ccccc3)cc(=O)oc2c1` (stereo not shown) [Compound 56, methyl 2-(2-oxo-4-phenyl-chromen-7-yl)oxypropanoate], the IC50 lay in the range of 100 to 1000 nM.

Regarding `CNC(=O)C1CCCN(C(=O)C(C)Oc2ccc3c(-c4ccccc4)cc(=O)oc3c2)C1` (stereo not shown) [Compound 62, N-methyl-1-[2-(2-oxo-4-phenyl-chromen-7-yl)oxypropanoyl]piperidine-3-carboxamide], the IC50 fell in the range of 1000 to 10000 nM.
